# Source: patent publication US4824853A, “α,α-diaryl-4-aryl-4-hydroxy-1-piperidinebutanamide, N-oxides and method of treating diarrhea” (Janssen Pharmaceutica N.V., priority 1986, dated 1989)
# Experiments:
# [1] = system: diarrhea; assay: Castor Oil Test in Rats; assay type: in vivo, Female Wistar rats; settings: Rattus norvegicus; intravenous, 1 h before 1 ml castor oil orally; diarrhea absent in 50% of animals 2 hours after castor oil
# Description: Female Wistar rats were fasted overnight. Each animal was treated intravenously with the desired dose of the compound to be tested. One hour thereafter, the animal received 1 ml of castor oil orally. Each animal was kept in an individual cage and 2 hours after the castor oil treatment, the presence or absence of diarrhea was noted. The ED50 value was determined as that dose in mg/kg body weight, at which no diarrhea was present in 50% of the tested animals. Said ED50 -value for a compound of the present invention and for 4-(4-chlorophenyl)-4-hydroxy-N,N-dimethyl-α,α-diphenyl-1-piperidinebutanamide, which compound is generically designated as loperamide and which is described in U.S. Pat. No. 3,714,159, can be found in table I.
# [2] = system: tail withdrawal response; assay: Tail Withdrawal Test in Rats; assay type: in vivo, Female Wistar rats; settings: intravenous; for ED50: Rattus norvegicus, 55° C. water, response suppressed >10 seconds in 50% of animals, indicator of central effects
# Description: Female Wistar rats were fasted overnight. Each animal was treated intravenously with the desired dose of the compound to be tested. The thus treated rats were put into individual restraining cages. After the administration of the test compound, the lower 5 cm portion of the tail was immersed into a cup filled with water at a constant temperature of 55° C. The typical tail withdrawal response was evaluated during a 10 seconds period after the immersion. ED50 values in mg/kg body weight were determined at that dose of the test compound capable of suppressing in 50% of the tested animals the typical tail withdrawal response during a time period exceeding 10 seconds.
# [3] = Determination of toxicity; parameters: species or system Female Wistar rats; settings: rat, in vivo; dose lethal in 50% of tested animals; route not stated
# Description: Female Wistar rats were treated with the compound to be tested at various dose levels. LD50 values were determined as that dose in mg/kg body weight being lethal in 50% of the tested animals. Said LD50 values obtained for a compound of the present invention and for 4-(4-chlorophenyl)-4-hydroxy-N,N-dimethyl-α,α-diphenyl-1-piperidinebutanamide (i.e. loperamide) are also listed in table I. From these value it can be concluded that the compounds of the present invention show a decreased toxicity.
# [4] = Determination of the safety margin for the antidiarrheal action (LD50 / Castor Oil ED50); parameters: species or system Female Wistar rats; settings: rat, in vivo; ratio LD50 / ED50 Castor Oil Test
# Description: (§1) The safety margin for the antidiarrheal action was determined as the ratio of the LD50 value to the ED50 value obtained in the Castor Oil Test. The antidiarrheal specificity was determined as the ratio of the ED50 value obtained in the Tail Withdrawal Test to the ED50 value obtained in the Castor Oil Test.
# [5] = system: diarrhea; assay: Determination of the antidiarrheal specificity (Tail Withdrawal ED50 / Castor Oil ED50); assay type: in vivo, Female Wistar rats; settings: ratio ED50 Tail Withdrawal Test / ED50 Castor Oil Test
# Description: as §1
Structure (SMILES),ED50 [1],ED50 [2],typical tail withdrawal reflex antagonism (in words) [2],LD50 [3],selectivity ratio [4],Antidiarrheal specificity [5]
"CN(C)C(=O)C(CC[N+]1([O-])CCC(O)(c2ccc(Cl)cc2)CC1)(c1ccccc1)c1ccccc1 (stereo not drawn) [Compound 1, trans-4-(4-chlorophenyl)-4-hydroxy-N,N-dimethyl-α,α-diphenyl-1-piperidinebutanamide, N-oxide]",0.21 mg/kg,> 20 mg/kg,does not show such activity,28.3 mg/kg,135,> 95
"CN(C)C(=O)C(CCN1CCC(O)(c2ccc(Cl)cc2)CC1)(c1ccccc1)c1ccccc1 [loperamide, 4-(4-chlorophenyl)-4-hydroxy-N,N-dimethyl-α,α-diphenyl-1-piperidinebutanamide]",0.095 mg/kg,2.83 mg/kg,antagonizes the typical tail withdrawal reflex,5.92 mg/kg,62.3,29.8
